Tests used:
MOLP-8 tumor xenografts = assay: Bulky MOLP-8 tumor xenograft model in SCID mice (Part II / Xenograft Mouse Experiments B); type: in vivo; settings: 450 μg/kg dose; mean time to reach 160 mm^3 minus mean time of control group
Protocol: In a second set of experiments, MOLP-8 cells (1.5×10^7 cells per mouse), suspended in a 50:50 mixture of serum free media and matrigel were injected subcutaneously in the area under the right shoulder in 100 μl. […] Each mouse in the control group (n=6) received 0.2 ml of sterile PBS administered into the lateral tail vein (i.v.) in a bolus injection. All treatment doses were based on conjugated maytansinoid. […] Mice were randomized into eleven groups (n=6) by tumor volume using the LabCat Program. […] The mice were dosed based on the individual body weight.
(§1) Tumor size was measured twice per week in three dimensions using the LabCat System (Tumor Measurement and Tracking, Innovative Programming Associated, Inc., Princeton, N.J.). The tumor volume in mm^3 was calculated using the methodology described in Tomayko et al., Cancer Chemother.
In this set of experiments, eighty-five mice were inoculated with MOLP-8 cells (1.5×10^7 cells/mouse) subcutaneously in the right shoulder.

[1] = test system: MOLP-8 human multiple myeloma xenografts; assay: MOLP-8 human multiple myeloma xenograft in CB.17 SCID mice (Xenograft Mouse Experiments A, Part I); type: in vivo
Protocol: In these mice, subcutaneous tumors were established (female CB.17 SCID mice) by inoculation with MOLP-8 cell suspensions. Treatment with a single bolus intravenous injection was conducted when tumor volumes reached an average 113 mm^3. Changes in tumor volume and body weight were monitored twice per week.
Female CB.17 SCID mice, five weeks old, were obtained from Charles River Laboratories.
MOLP-8, a human multiple myeloma cell line, was supplied from ATCC.
Each mouse was inoculated with 1×10^7 MOLP-8 cells subcutaneously into the area under the right shoulder. The total volume was 0.2 ml per mouse, in which the ratio of serum-free medium to matrigel (BD Bioscience, Bedford, Mass.) was 1/1 (v/v). Prior to treatment, the xenograft tumors were monitored daily and were allowed to become established.
Eleven days after tumor cell inoculation, 42 mice were selected based on tumor volumes and body weights. […] The forty-two mice were randomly divided into seven groups (A-G) of six animals each based on tumor volume.
Each of six mice in Group A received 200 μl of PBS as vehicle control.
All agents were intravenously administered as a single bolus injection through a lateral tail vein with a 1 ml syringe fitted with a 27 gauge, ½ inch needle.
as §1

Substance | TGD (days), tumor growth delay (MOLP-8 tumor xenografts) | homogeneity of anti-tumor activity in individual mice ([1]; 250 μg/kg single i.v. dose) | median tumor volume over time post-inoculation ([1]; 250 μg/kg single i.v. dose, data not shown) | effect on tumor growth compared with PBS-treated animals ([1]; single i.v. bolus, 250 μg/kg (nBT062 antibody […]))
nBT062-DM1: nBT062 conjugate with DM1, linker not stated at this place; TGD matches nBT062-SMCC-DM1 | 18 days | – | – | –
B-B4-SPP-DM1 [reference compound] | – | more heterogeneously and therefore less predicable | relatively better results for B-B4-SPP-DM1 than for nBT062-SPP-DM1 | marked delay in tumor growth

From patent publication US9221914B2, “Agents targeting CD138 and uses thereof” (BIOTEST AG, priority 2007, dated 2015)
